test system: Human melanoma HM3KO cells; experiment: Effect on inhibition of melanin production; format: cell-based; conditions: 10 ppm of each test material, absorbance at 500 nm vs DMSO control
Protocol: Human melanoma HM3KO cells (Y. Funasaka, Department of dermatology, Kobe university school of medicine, 5-1 Kusunoki-cho 7-chrome, Chuo-ku, Kobe 650, Japan) were cultured in 10% FBS-containing MEM (Minimum Essential Medium) under the conditions of 37° C. and 5% CO2. The cultured cells were plated on T75 flasks at a density of 3×10^5 cells per flask and allowed to stand overnight until the cells adhered to the flask wall. After the cells were confirmed to adhere to the flask wall, the medium was replaced with a fresh medium containing 10 ppm of each of the test materials shown in Table 1 below. In a control group, a DMSO-containing medium was used. In this manner, the medium was replaced with a fresh medium containing each test material once at intervals of 2-3 days, while the cells were cultured until the flask was filled with the cells. When the cells completely grew, the cells were collected, and the color thereof was compared between the control group and each of the groups treated with the test material. In addition, after the culture medium has been removed and the cells were washed with PBS, the cells were dissolved in 1N sodium hydroxide, and the absorbance at 500 nm was measured. Based on the measurements, the inhibition (%) of melanin production was calculated using the following equation 1, and the results of the calculation are shown in Table 1 below. Inhibition (%) of melanin production=[…] [Equation 1]

| SMILES | inhibition at 10 ppm [%] |
| --- | --- |
| NC(=O)c1cccnc1 [Nicotinic acid amide] | 29.5 |
| NC[C@H]1CC[C@H](C(=O)O)CC1 [Tranexamic acid] | 32.2 |
| O=c1cc(CO)occ1O [Kojic acid] | 28.3 |
